From US20060052357A1, “Organometallic anti-tumour agent” (priority 2001, published 2006)

Legend:
P388/cPt = test: Drug-resistant leukemia P388/cPt (cisplatin-resistant) survival; assay type: in vivo, mice; conditions: 5 mg/kg, days 1-7
From the text: (§1) The therapeutic efficacy was investigated on the leukemia tumor strains L-1210, P-388, and P-388 strains specifically obtained for drug resistance. The lifespan of the animals was set at 60 days in this case. Drug-resistant tumor were obtained by successive transplantation of the leukemia P-388 with ascites cells taken from mice which had been treated with rubomycin (strain P388/ph), vincristine (P388/vcr) and zisplatin (P388/cPt).
Resistance to the products mentioned appear in the 8th, 6th and 4th generation.
The products were administered intraabdominally. Cu(acac)2M was dissolved in 10% Twin 80.

[1] = test system: S-180 sarcoma tumor cells; test: DNA concentration in S-180 sarcoma tumor cells after incubation; assay type: cell-based, mice; conditions: 0.05 mg/10^6 cells; for DNA concentration: 37° C., control 106; for DNA concentration/control: control 100
Procedure: S-180 sarcoma tumor cells (20·10^6 cells/investigation) were incubated with the substance MOC.melphalan in a concentration of 0.05 mg/10^6 cells at a temperature of 37° C. for 40 or 60 min (see table 16).
The DNA concentration was determined using the phenol-chloroform method of MANIATIS (Maniatis, Frin, Sämbruck Methods of genetic engineering, Molecular Cloning, M.: MIR, 1984, pages 479 et seq.). Separation of DNA and RNA was followed by a phoresis in a 2.5% agarose gel (see table 16, FIG. 7).

[2] = Solubility and stability in air
adenocarcinoma [3] = test: Adenocarcinoma transplanted after administration of the product; assay type: in vivo, mice; conditions: day 21
Procedure: 3. Antitumor Activity for Adenocarcinoma Transplanted After Administration of the Product.
The active ingredient of the invention was administered intravenously in the dosage stated in the table 4 days in succession in physiological saline solution of 0.3 ml each time. The adenocarcinoma was then implanted in the Balb mice. 21 days after the tumor was transplanted, the animals were sacrificed and the weight and size of the tumor recorded. The animals received no other drugs during the experiment and were kept with a normal feed ration.

leukemia L-1210 = test: Leukemia L-1210 survival; assay type: in vivo, mice
Procedure: as §1
Inoculum: 10^6 cells in 0.2 ml of physiological saline solution. Mice: BDF1, females 19-21 g. The products were administered intraabdominally.
After transplantation of the tumor, the substance MOC.melphalan was administered intraabdominally to the animals in a dosage of 5 mg/kg in 0.3 ml of 10% Twin-80 solution on days 1 to 7. The effect of the substance was assessed on the basis of the lifespan and the weight change of the animals (table 9). The observation period was 60 days.

adenocarcinoma [4] = test: Adenocarcinoma in Balb mice, intraabdominal administration; assay type: in vivo
Procedure: 1) 10 mice of the Balb line, each of which contained an adenocarcinoma, received intraabdominal administration of Cu(acac)2M in a dose of 5 mg/kg in 0.3 ml of physiological saline solution. As control, 10 further mice of the same type with the same tumor were determined without treatment. An average tumor weight of 3.60 g was found in the control mice, while the average tumor weight in the treated mice was 0.3 g. The results for the mice treated according to the invention are indicated, with weight and size of the tumor, in table 1 below.
The average weight of the tumor was 3.60 g.

B-16 melanoma tumor = test: B-16 melanoma in Black-line mice (Example 6); assay type: in vivo
Procedure: After transplantation of the B-16 melanoma tumor to Black-line mice. (cell suspension with 10×10^6 cells/ml), MOC.melphalan was administered intraabdominally in a dosage of 5 mg/kg in 0.3 ml of 10% DMSO solution on days 3, 5 and 9. The animals were sacrificed on day 21 of the investigation and underwent histological, morphological examination (see table 9).
After transplantation of the B-16 melanoma tumor into black-line mice (cell suspension with 10×10^6 cells/ml), the substance was administered intraabdominally in a dosage of 0.1 mg/animal in 0.3 ml of 10% DMSO solution on days 3, 5 and 9. The animals were sacrificed on day 16 of the investigation and underwent histological, morphological examination (see table 10, FIGS. 1, 2). The DNA concentration in the tumor cells was determined by spectrophotometry after electrophoresis. (Table 10, FIG. 3).

[5] = test system: tumor cell cultures (KML); test: Suppression of cell proliferation in tumor cell cultures (KML); assay type: cell-based, mice; conditions: incubation 24 hours
Procedure: The effect of the substances MOC.melphalan and MOC.tegafur of the invention on the proliferative activity, morphology and protein synthesis was investigated on tumor cell cultures (KML). This took place with the mice separated out of the melanoma-16 line. 80 000 cells/ml were distributed in 3 ml of DMEM with the addition of embryonic calf serum, 200 μ/mol of glutamine and antibiotic. After cultivation of the cells at a temperature of 37° C. for 24 hours (logarithmic cell growth phase), the MOC substances were added in the concentration of 10 and 100 μg/ml. After incubation for 24 hours, the number of live cells was determined. In parallel, the fixed specimens of the cells were prepared for morphological analysis.

AKATON tumor = test: AKATON small bowel adenocarcinoma, treatment with MOC.melphalan (Example 8); assay type: in vivo, mice; conditions: day 21
Procedure: (§2) After transplantation of the AKATON tumor into white crossbred mice, the animals received the substance MOC.melphalan by intraabdominal administration in a dosage of 5 mg/kg in 0.3 ml of physiological solution on days 3, 5, 7 and 9. The animals were sacrificed on day 21 of the investigation and underwent histological, morphological examination (table 14).
as §2, with “intravenous” for “intraabdominal”, “15).” for “14).”

[6] = 5 mg/kg i.v. 4 days before implantation

For `CC(=O)C=C(C)[O-].CC(=O)C=C(C)[O-].NC(Cc1ccc(N(CCCl)CCCl)cc1)C(=O)O.[Cu+2]` (stereo not shown) [MOC.melphalan, (C5H7O2)2—Cu—C13H18Cl2N2O2], the ILS % (P388/cPt) was 193%, the DNA concentration ([1]; incubation 40 min) was 530 μg/g of cells and the DNA concentration ([1]; incubation 60 min) was 53 μg/g of cells. For the same molecule, the DNA concentration/control ([1]; incubation 40 min) was 498, the DNA concentration/control ([1]; incubation 60 min) was 50 and the solubility in water [2] was “poor solubility”. The “% inhibition (mass of the tumor)” value (adenocarcinoma [3]; [6]) was 80%, the “% inhibition (size of the tumor)” value (adenocarcinoma [3]; [6]) was 82.5% and the “Size of the tumor” value (adenocarcinoma [3]; 5 mg/kg i.v. 4 days before implantation, control 7.9) was 1.38 cm^3. For the same molecule, the “Mass of the tumor” value (adenocarcinoma [3]; 5 mg/kg i.v. 4 days in succession before implantation, control 4.46) was 0.91 g, the Change in weight (leukemia L-1210; 5 mg/kg intraabdominal days 1-7) was -1.5 g and the “% of surviving animals” value (leukemia L-1210; 5 mg/kg intraabdominal days 1-7, 60 days observation) was 100%. For the same molecule, the “Lifespan of the animals in the experiment” value (leukemia L-1210; 5 mg/kg intraabdominal days 1-7, control 8.5) was over 60 days, the “inhibition of the tumor” value (adenocarcinoma [4]; Balb mice, 5 mg/kg intraabdominal, compared with control series) was 91.9% and the average tumor weight (adenocarcinoma [4]; Balb mice, 5 mg/kg intraabdominal, control 3.60 g) was 0.3 g. The “Size of the tumor” value (adenocarcinoma [4]; individual treated mice 1-10, 5 mg/kg intraabdominal, listed as Cu(acac)2M) was 0 cm, the Percentage inhibition (B-16 melanoma tumor; 0.1 mg/animal intraabdominal days 3, 5, 9, day 16) was 78% and the Average tumor mass (B-16 melanoma tumor; 0.1 mg/animal intraabdominal days 3, 5, 9, day 16, control 3.22) was 0.83 g. The mitosis index (B-16 melanoma tumor; 0.1 mg/animal, day 16, control 4.2) was 0.6, the Percentage inhibition (B-16 melanoma tumor; 5 mg/kg intraabdominal days 3, 5, 9, day 21) was 100% and the Tumor weight (B-16 melanoma tumor; FIG. 1, single black-line mouse after treatment, control mouse 3.15 g) was 0.3 g. The DNA (B-16 melanoma tumor; tumor cells, 0.1 mg/animal, day 16, control 4.3) was 0.8 mg/g, the “Suppression of growth cells” value ([5]; 10 μg/ml) was 30% and the “Suppression of growth cells” value ([5]; 100 μg/ml) was 95%. It also gave a Percentage inhibition (AKATON tumor; 5 mg/kg intraabdominal days 3, 5, 7, 9) of 92%, an Average tumor mass (AKATON tumor; 5 mg/kg intraabdominal days 3, 5, 7, 9, control 3.6) of 0.3 and a Percentage inhibition (AKATON tumor; 5 mg/kg intravenous days 3, 5, 7, 9) of 80%. The Average tumor mass (AKATON tumor; 5 mg/kg intravenous days 3, 5, 7, 9, control 4.4) was 0.9 g.
